Test results as given in US20250345459A1, “COMPOUND OR SALT THEREOF, LIPID COMPOSITION, PHARMACEUTICAL COMPOSITION, AND DELIVERY CARRIER” (FUJIFILM Corporation, priority 2023, published 2025).

Key:
[1] = Particle size of EPO mRNA-encapsulating lipid nanoparticles; type: physicochemical; settings: LNP with neutral lipid DSPC; mixed solution PBS; Lipid/Nucleic acid (wt/wt) 20
Description: (§1) The compounds described in Table 1, the neutral lipid, cholesterol (product name: Cholesterol HP; NIPPON FINE CHEMICAL CO., LTD.), and 1,2-dimyristoyl-rac-glycero-3-(methylpolyoxyethylene 2000) (hereinafter, called DMG-PEG2000) (product name: SUNBRIGHT® GM-020; NOF corporation) were dissolved in ethanol at a molar ratio of ionized lipid:neutral lipid:cholesterol:DMG-PEG2000=50:10:38.5:1.5 mol % such that the total lipid concentration was 12.5 mmol/L, to obtain an oil phase.
(§2) As the neutral lipid, 1,2-distearoyl-sn-glycero-3-phosphocholine (product name: COATSOME® MC-8080; NOF corporation) (hereinafter, DSPC), or L-α-dioleoylphosphatidylethanolamine (hereinafter, DOPE) (product name: COATSOME® MC-8181; NOF corporation) was used.
(§3) EPO mRNA (product name: CleanCap EPO mRNA (5 moU); TriLink) was diluted with 50 mmol/L citrate buffer having a pH 4.0 such that the weight ratio of total lipid concentration to mRNA concentration is about 20:1 to 64:1, thereby obtaining a water phase. Then, the water phase and the oil phase were mixed together using NanoAssemblr (Precision NanoSystems) such that the volume ratio of water phase:oil phase was 3:1. The mixed solution was diluted 2-fold with any of phosphate buffered physiological saline (PBS), water, or a 20 mmol/L Tris buffer solution (pH 7.4) to obtain a dispersion liquid of mRNA lipid nanoparticles. The dispersion liquid was dialyzed with 20 mmol/L Tris buffer solution (pH 7.4) containing 8% sucrose using a dialysis cassette (Slide-A-Lyzer G2, MWCO: 10 kD, Thermo Fisher Scientific) to remove ethanol, thereby obtaining EPO mRNA-encapsulating lipid nanoparticles.
The particle size of the mRNA-encapsulating lipid nanoparticles was measured by 5-fold diluting the dispersion liquid of lipid nanoparticle with phosphate buffered physiological saline (PBS) using a particle size measurement device NanoSaqla (Otsuka Electronics Co., Ltd.).

EPO mRNA = experiment: mRNA encapsulation rate of mRNA lipid nanoparticles; type: physicochemical; settings: LNP with neutral lipid DSPC; mixed solution PBS; Lipid/Nucleic acid (wt/wt) 20
Description: as §1, §2, §3
EPO mRNA was diluted with MilliQ water to prepare a diluted sample in 2-fold dilution series from 100 µg/mL to […], and a calibration curve solution was prepared. 50 μL of the calibration curve solution or the mRNA lipid nanoparticles was mixed with 450 μL of methanol to prepare a measurement solution.
The absorbance of each measurement solution at 260 nm and 330 nm was measured using a UV plate reader (Multiskan Go, Thermo Fisher Scientific), the absorbance at 330 nm was subtracted from the absorbance at 260 nm, and the result was defined as the absorbance of each measurement solution. The total […] nucleic acid concentration was calculated from the calibration curve using the absorbance of each sample measurement solution.
The concentration of the outer water phase nucleic acid was quantified by a standard addition method using a QuanT-iT RiboGreen RNA Assay Kit (Thermo Fisher Scientific). First, a 20× TE buffer included in the above kit was diluted with water, thereby obtaining a 1×TE buffer. TE represents Tris/EDTA (ethylenediaminetetraacetic acid). EPO mRNA was diluted with a TE buffer such that the final concentration was 0 to 400 ng/mL to prepare a nucleic acid diluted series. 10 μL of mRNA lipid nanoparticles diluted 5-fold with TE buffer and 90 µL of a nucleic acid dilution series were mixed in a 96-well plate, 100 μL of a Ribogreen reagent diluted 200-fold with TE buffer was added to each well, and then fluorescence (excitation wavelength: 485 nm, fluorescence wavelength: 535 nm) was measured using a fluorescence plate reader (Infinite 200 Pro M nano+, TECAN). From the obtained results, the outer water phase nucleic acid concentration of each measurement solution was calculated according to the standard addition method.
By using the quantification results of the total mRNA concentration and the mRNA concentration in the outer water phase that were obtained through the above steps, the mRNA encapsulation rate of the mRNA lipid nanoparticles was calculated according to the following Equation. […]

ICR mice = experiment: EPO protein expression in mice after intravenous EPO mRNA lipid nanoparticles; type: in vivo; settings: mRNA 0.1 mg/kg, plasma 6 hours after administration, neutral lipid DSPC, Lipid/Nucleic acid (wt/wt) 20, Comparative Example 1 is 1
Description: as §1, §2, §3
The dispersion liquid of mRNA lipid nanoparticles prepared in above <Preparation of EPO mRNA-encapsulating lipid nanoparticles> was intravenously administered to ICR mice at a mRNA dosage of 0.1 mg/kg. 6 hours after the administration, blood was collected from the caudal vena cava, thereby obtaining plasma. The human EPO […] was quantified by using the obtained blood plasma and Erythropoietin (EPO) Human Elisa Kit (Abcam.plc). The quantitative value is described as a relative amount of EPO protein in a case where Comparative Example 1 is 1.

SMILES | Particle size (nm) [1] [nm] | Nucleic acid encapsulation rate (%) (EPO mRNA) | Relative amount of EPO protein (to Comparative Example 1) (ICR mice)
CCCCCC(CCCCC)COC(=O)CCCCN(C(=O)OCCN(CCOC(=O)N(CCCCC(=O)OCC(CCCCC)CCCCC)C(C)C)CCN(CC)CC)C(C)C [Example 13, Bis(2-pentylheptyl) 11-(2-(diethylamino)ethyl)-6,16-diisopropyl-7,15-dioxo-8,14-dioxa-6,11,16-triazahenicosanedioate] | 188 | 88 | 
CCCCCC(CCCCC)COC(=O)CCN(CCCC)C(=O)OCCN(CCCN(CC)CC)CCOC(=O)N(CCCC)CCC(=O)OCC(CCCCC)CCCCC [Example 7, Bis(2-pentylheptyl) 4,14-dibutyl-9-(3-(diethylamino)propyl)-5,13-dioxo-6,12-dioxa-4,9,14-triazaheptadecanedioate] | 215 | 73 | 
CCCCCC(CCCCC)COC(=O)CCCCN(CCC)C(=O)OCCN(CCCN(CC)CC)CCOC(=O)N(CCC)CCCCC(=O)OCC(CCCCC)CCCCC [Example 16, Bis(2-pentylheptyl) 11-(3-(diethylamino)propyl)-7,15-dioxo-6,16-dipropyl-8,14-dioxa-6,11,16-triazahenicosanedioate] | 187 | 93 | 
CCCCCC(CCCCC)COC(=O)CCN(CCCC)C(=O)OCCN(CCOC(=O)N(CCCC)CCC(=O)OCC(CCCCC)CCCCC)CCN(CC)CC [Example 6, Bis(2-pentylheptyl) 4,14-dibutyl-9-(2-(diethylamino)ethyl)-5,13-dioxo-6,12-dioxa-4,9,14-triazaheptadecanedioate] | 183 | 58 | 
CCCCCC(CCCCC)COC(=O)CCCCN(CCC)C(=O)OCCN(CCOC(=O)N(CCC)CCCCC(=O)OCC(CCCCC)CCCCC)CCN(CC)CC [Example 15, Bis(2-pentylheptyl) 11-(2-(diethylamino)ethyl)-7,15-dioxo-6,16-dipropyl-8,14-dioxa-6,11,16-triazahenicosanedioate] | 238 | 79 | 
CCCCCC(CCCCC)COC(=O)CCCCN(C(=O)OCCN(CCCN(CC)CC)CCOC(=O)N(CCCCC(=O)OCC(CCCCC)CCCCC)C(C)C)C(C)C [Example 14, Bis(2-pentylheptyl) 11-(3-(diethylamino)propyl)-6,16-diisopropyl-7,15-dioxo-8,14-dioxa-6,11,16-triazahenicosanedioate] | 185 | 97 | 
CCCCCCCCCC(=O)OCCN(CCOC(=O)CCCCCCCCC)C(=O)OCCN(CCOC(=O)N(CCOC(=O)CCCCCCCCC)CCOC(=O)CCCCCCCCC)CCN(CC)CC [Example 12, 2-(2-(2-(bis(2-decanoyloxyethyl)carbamoyloxy)ethyl-(2-(diethylamino)ethyl)amino)ethoxycarbonyl-(2-decanoyloxyethyl)amino)ethyl decanoate] | 169 | 62 | 

More lines, main results first:

Particle size (nm) [1] [nm] | Nucleic acid encapsulation rate (%) (EPO mRNA) | SMILES | Relative amount of EPO protein (to Comparative Example 1) (ICR mice)
230 | 64 | CCCCCC(CCCCC)COC(=O)CCCCN(CCCC)C(=O)OCCN(CCOC(=O)N(CCCC)CCCCC(=O)OCC(CCCCC)CCCCC)CCN(CC)CC [Example 21, Bis(2-pentylheptyl) 6,16-dibutyl-11-(2-(diethylamino)ethyl)-7,15-dioxo-8,14-dioxa-6,11,16-triazahenicosanedioate] | 
82 | 96 | CCCCCCCCN(CCCCCC(=O)OCC(CCCCC)CCCCC)C(=O)OCCN(CCOC(=O)N(CCCCCCCC)CCCCCC(=O)OCC(CCCCC)CCCCC)CCN(CC)CC [Example 50, bis(2-pentylheptyl) 12-(2-(diethylamino)ethyl)-7,17-dioctyl-8,16-dioxo-9,15-dioxa-7,12,17-triazatricosanedioate] | 1.55
136 | 93 | CCCCCCCCN(CCCCC(=O)OCC(CCCCCC)CCCCCC)C(=O)OCCN(CCCN(CC)CC)CCOC(=O)N(CCCCCCCC)CCCCC(=O)OCC(CCCCCC)CCCCCC [Example 37, Bis(2-hexyloctyl) 11-(3-(diethylamino)propyl)-6,16-dioctyl-7,15-dioxo-8,14-dioxa-6,11,16-triazahenicosanedioate] | 11.39
126 | 94 | CCCCCC(CCCCC)COC(=O)CCCCCN(CCCCC)C(=O)OCCN(CCCN(CC)CC)CCOC(=O)N(CCCCC)CCCCCC(=O)OCC(CCCCC)CCCCC [Example 49, bis(2-pentylheptyl) 12-(3-(diethylamino)propyl)-8,16-dioxo-7,17-dipentyl-9,15-dioxa-7,12,17-triazatricosanedioate] | 1.12
197 | 92 | CCCCCCC(CCCCCC)COC(=O)CCCCN(CCCC)C(=O)OCCN(CCCN(CC)CC)CCOC(=O)N(CCCC)CCCCC(=O)OCC(CCCCCC)CCCCCC [Example 24, Bis(2-hexyloctyl) 6,16-dibutyl-11-(3-(diethylamino)propyl)-7,15-dioxo-8,14-dioxa-6,11,16-triazahenicosanedioate] | 1.48
149 | 82 | CCCCCCCCCCOC(=O)CN(CC(=O)OCCCCCCCCCC)C(=O)OCCN(CCOC(=O)N(CC(=O)OCCCCCCCCCC)CC(=O)OCCCCCCCCCC)CCN(CC)CC [Example 27, Decyl 2-(2-(2-(bis(2-decoxy-2-oxo-ethyl)carbamoyloxy)ethyl-(2-(diethylamino)ethyl)amino)ethoxycarbonyl-(2-decoxy-2-oxo-ethyl)amino)acetate] | 3.85
224 | 43 | CCCCCC(CCCCC)COC(=O)CCCCN(CC(C)C)C(=O)OCCN(CCOC(=O)N(CCCCC(=O)OCC(CCCCC)CCCCC)CC(C)C)CCN(CC)CC [Example 18, Bis(2-pentylheptyl) 11-(2-(diethylamino)ethyl)-6,16-diisobutyl-7,15-dioxo-8,14-dioxa-6,11,16-triazahenicosanedioate] | 
332 | 33 | CCCCCCCCCCCCCOC(=O)CN(CC(=O)OCCCCCCCCCCCCC)C(=O)OCCN(CCOC(=O)N(CC(=O)OCCCCCCCCCCCCC)CC(=O)OCCCCCCCCCCCCC)CCN(CC)CC [Example 34, Ditridecyl 8-(2-(diethylamino)ethyl)-4,12-dioxo-3,13-bis(2-oxo-2-(tridecyloxy)ethyl)-5,11-dioxa-3,8,13-triazapentadecanedioate] | 
203 | 60 | CCCCCCCCCCCCOC(=O)CN(CC(=O)OCCCCCCCCCCCC)C(=O)OCCN(CCOC(=O)N(CC(=O)OCCCCCCCCCCCC)CC(=O)OCCCCCCCCCCCC)CCN(CC)CC [Example 32, didodecyl 8-(2-(diethylamino)ethyl)-3,13-bis(2-(dodecyloxy)-2-oxoethyl)-4,12-dioxo-5,11-dioxa-3,8,13-triazapentadecanedioate] | 
